Test results from patent publication US9056876B2, “Substituted 1H-pyrazolo[3′,4′,4,5]thieno[2,3-b]pyridin-3-amine analogs as positive allosteric modulators of the muscarinic acetylcholine receptor M4” (VANDERBILT UNIVERSITY, priority 2011, dated 2015).

Molecular target: T1, mAChR M4 (UniProt P08173)
T1 construct: hM1 and hM4 cDNAs were purchased from Missouri S&T cDNA Resource
T1 sequence (P08173 1-479): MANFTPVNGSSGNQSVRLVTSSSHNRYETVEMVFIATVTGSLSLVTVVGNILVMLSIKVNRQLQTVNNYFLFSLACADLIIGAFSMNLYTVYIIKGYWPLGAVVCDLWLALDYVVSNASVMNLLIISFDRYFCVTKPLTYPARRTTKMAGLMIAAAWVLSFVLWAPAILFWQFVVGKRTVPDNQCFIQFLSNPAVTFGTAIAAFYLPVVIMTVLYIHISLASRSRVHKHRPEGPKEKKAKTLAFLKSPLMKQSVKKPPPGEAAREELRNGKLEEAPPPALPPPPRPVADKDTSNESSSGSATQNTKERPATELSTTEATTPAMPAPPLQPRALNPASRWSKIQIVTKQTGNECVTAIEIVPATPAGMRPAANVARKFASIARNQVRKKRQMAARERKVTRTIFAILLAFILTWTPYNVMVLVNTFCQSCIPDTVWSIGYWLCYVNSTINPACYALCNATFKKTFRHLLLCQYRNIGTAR
Experiment: mAChR M4 cell-based functional assay (calcium mobilization, Fluo-4, FDSS)
Conditions: for Emax (%)*: % ACh maximum at 30 μM; for pEC50: positive allosteric modulator activity, EC20 acetylcholine response; for pEC50 / EC50: CHO-K1 cells; for EC50: positive allosteric modulator activity: concentration-dependent increase in the EC20 acetylcholine response, >10 μM estimated for low potency (no plateau)
Excerpt: Chinese hamster ovary (CHO-K1) cells stably expressing rat (r)M1 were purchased from the American Type Culture Collection and cultured according to their indicated protocol. CHO cells stably expressing human (h)M2, hM3, and hM5 were described previously (Levey A I, et al., (1991) J Neurosci 11:3218-3226.); hM1 and hM4 cDNAs were purchased from Missouri S&T cDNA Resource; rM4 cDNA was provided by T. I. Bonner (National Institutes of Health, Bethesda, Md.). rM2 and rM3 were cloned from a rat brain cDNA library and sequence verified. hM1, rM2, rM3, hM4, and rM4 cDNAs were used to stably transfect CHO-K1 cells purchased from the American Type Culture Collection using Lipofectamine-2000. To make stable rM2, hM2, rM3, hM4, and rM4 cell lines for use in calcium mobilization assays, these cells also were stably transfected with a chimeric G-protein (Gqi5) (provided by B. R. Conklin, University of California, San Francisco) using Lipofectamine 2000. rM1, hM1, rM3, hM3, rM5, and hM5 cells were grown in Ham's F-12 medium containing 10% heat-inactivated fetal bovine serum (FBS), 20 mM HEPES, and 50 µg/mL G418 sulfate. rM2-Gqi5, hM2-Gqi5, and hM4-Gqi5 cells were grown in the same medium also containing 500 µg/mL Hygromycin B. Stable rM4-Gqi5 cells were grown in DMEM containing 10% heat-inactivated FBS, 20 mM HEPES, 400 µg/mL G418 sulfate, and 500 µg/mL Hygromycin B.
For high throughput measurement of agonist-evoked increases in intracellular calcium, CHO-K1 cells stably expressing the target muscarinic receptor were plated in growth medium lacking G418 and hygromycin at 15,000 cells/20 μL/well in Greiner 384-well black-walled, tissue culture (TC)-treated, clear-bottom plates (VWR). Cells were incubated overnight at 37° C. and 5% CO2. The next day, cells were washed using an ELX 405 (BioTek) with four washes (80 μL) of assay buffer then aspirated to 20 μL. Next, […] of 16 μM Fluo-4/acetoxymethyl ester (Invitrogen, Carlsbad, Calif.) prepared as a 2.3 mM stock in DMSO and mixed in a 1:1 ratio with 10% (w/v) Pluronic F-127 and diluted in assay buffer was added to the wells and the cell plates were incubated for 50 min at 37° C. and 5% CO2. Dye was removed by washing with the ELX 405 (four 80 μL washes of assay buffer) then aspirated to 20 μL. Compound master plates were formatted in an 11 point CRC format (1:3 dilutions) in 100% DMSO with a starting concentration of 10 mM using the BRAVO liquid handler (Agilent). Test compound CRCs were then transferred to daughter plates (240 nL) using the Echo acoustic plate reformatter (Labcyte, Sunnyvale, Calif.) and then diluted into assay buffer (40 μL) to a 2× stock using a Thermo Fisher Combi (Thermo Fisher Scientific, Waltham, Mass.).
Calcium flux was measured using the Functional Drug Screening System (FDSS) 6000 (Hamamatsu Corporation, Tokyo, Japan) as an increase in the fluorescent static ratio. Compounds were applied to cells (20 μL, 2×) using the automated system of the FDSS 6000 at 4 s into the 300 s protocol and the data were collected at 1 Hz. At 144 s into the 300 s protocol, 10 μL of an EC20 concentration of the muscarinic receptor agonist acetylcholine was added (5×), followed by the addition of 12 μL an EC80 concentration of acetylcholine at the 230 s time point (5×). Agonist activity was analyzed as a concentration-dependent increase in calcium mobilization upon compound addition. Positive allosteric modulator activity was analyzed as a concentration-dependent increase in the EC20 acetylcholine response. Antagonist activity was analyzed as a concentration-dependent decrease in the EC80 acetylcholine response. Concentration-response curves were generated using a four-parameter logistical equation in XLfit curve fitting software (IDBS, Bridgewater, N.J.) for Excel (Microsoft, Redmond, Wash.) or Prism (GraphPad Software, Inc., San Diego, Calif.). […]

SMILES | Emax (%)* [%] | pEC50 | EC50 [nM]
Cc1cc(C)c2c(n1)sc1c(NC(=O)C3CC3)nn(C)c12 [Compound 46, N-(1,6,8-trimethyl-1H-pyrazolo[3′,4′:4,5]thieno[2,3-b]pyridin-3-yl)cyclopropanecarboxamide] | 44 | <5.00 | > 10000
CCC(=O)Nc1nn(C)c2c1sc1nc(C)cc(C)c12 [Compound 47, N-(1,6,8-trimethyl-1H-pyrazolo[3′,4′:4,5]thieno[2,3-b]pyridin-3-yl)propionamide] | 43 | 5.54 | 2900
COc1cc(OC)cc(C(C)Nc2nn(C)c3c2sc2nc(C)cc(C)c23)c1 (stereo not drawn) [Compound 48, N-(1-(3,5-dimethoxyphenyl)ethyl)-1,6,8-trimethyl-1H-pyrazolo[3′,4′:4,5]thieno[2,3-b]pyridin-3-amine] | 38 | <5.00 | > 10000
Cc1ccc2c(n1)sc1c(NCc3ccc(Cl)cc3)n[nH]c12 [Compound 49, N-(4-chlorobenzyl)-6-methyl-1H-pyrazolo[3′,4′:4,5]thieno[2,3-b]pyridin-3-amine] | 37 | 5.47 | 3400
Cc1ccc2c(n1)sc1c(NCc3ccccc3)n[nH]c12 [Compound 50, N-benzyl-6-methyl-1H-pyrazolo[3′,4′:4,5]thieno[2,3-b]pyridin-3-amine] | 57 | 5.60 | 2500
Cc1ccc2c(n1)sc1c(NCC3CC3)nn(C)c12 [Compound 51, N-(cyclopropylmethyl)-1,6-dimethyl-1H-pyrazolo[3′,4′:4,5]thieno[2,3-b]pyridin-3-amine] | 73 | 5.89 | 1300
Cc1ccc2c(n1)sc1c(NCc3ccco3)nn(C)c12 [Compound 52, N-(furan-2-ylmethyl)-1,6-dimethyl-1H-pyrazolo[3′,4′:4,5]thieno[2,3-b]pyridin-3-amine] | 64 | 5.82 | 1500
Cc1ccc2c(n1)sc1c(NCc3ccccc3)nn(C)c12 [Compound 53, N-benzyl-1,6-dimethyl-1H-pyrazolo[3′,4′:4,5]thieno[2,3-b]pyridin-3-amine] | 70 | 6.08 | 840
Cc1ccc2c(n1)sc1c(NCCC(C)C)nn(C)c12 [Compound 54, N-isopentyl-1,6-dimethyl-1H-pyrazolo[3′,4′:4,5]thieno[2,3-b]pyridin-3-amine] | 71 | 6.06 | 880
COc1ccc(CNc2nn(C)c3c2sc2nc(C)ccc23)cc1 [Compound 55, N-(4-methoxybenzyl)-1,6-dimethyl-1H-pyrazolo[3′,4′:4,5]thieno[2,3-b]pyridin-3-amine] | 63 | 6.02 | 960
Cc1ccc2c(n1)sc1c(NCc3ccc(Cl)cc3)nn(C)c12 [Compound 56, N-(4-chlorobenzyl)-1,6-dimethyl-1H-pyrazolo[3′,4′:4,5]thieno[2,3-b]pyridin-3-amine] | 56 | <5.00 | > 10000
Cc1cc(C)c2c(n1)sc1c(NCc3ccccc3F)nn(C)c12 [Compound 57, N-(2-fluorobenzyl)-1,6,8-trimethyl-1H-pyrazolo[3′,4′:4,5]thieno[2,3-b]pyridin-3-amine] | 70 | 6.72 | 190
Cc1cc(C)cc(CNc2nn(C)c3c2sc2nc(C)cc(C)c23)c1 [Compound 58, N-(3,5-dimethylbenzyl)-1,6,8-trimethyl-1H-pyrazolo[3′,4′:4,5]thieno[2,3-b]pyridin-3-amine] | 37 | <5.00 | > 10000
Cc1ccc(CNc2nn(C)c3c2sc2nc(C)cc(C)c23)c(C)c1 [Compound 59, N-(2,4-dimethylbenzyl)-1,6,8-trimethyl-1H-pyrazolo[3′,4′:4,5]thieno[2,3-b]pyridin-3-amine] | 57 | 5.60 | 2500
